Test results: patent US11802120B2, “Fused cyclic urea derivatives as CRHR2 antagonist” (RaQualia Pharma Inc., priority 2018, dated 2023)

Biological target: T1, human CRHR2-alpha (Homo sapiens, UniProt Q13324)
T1 sequence (Q13324 1-411): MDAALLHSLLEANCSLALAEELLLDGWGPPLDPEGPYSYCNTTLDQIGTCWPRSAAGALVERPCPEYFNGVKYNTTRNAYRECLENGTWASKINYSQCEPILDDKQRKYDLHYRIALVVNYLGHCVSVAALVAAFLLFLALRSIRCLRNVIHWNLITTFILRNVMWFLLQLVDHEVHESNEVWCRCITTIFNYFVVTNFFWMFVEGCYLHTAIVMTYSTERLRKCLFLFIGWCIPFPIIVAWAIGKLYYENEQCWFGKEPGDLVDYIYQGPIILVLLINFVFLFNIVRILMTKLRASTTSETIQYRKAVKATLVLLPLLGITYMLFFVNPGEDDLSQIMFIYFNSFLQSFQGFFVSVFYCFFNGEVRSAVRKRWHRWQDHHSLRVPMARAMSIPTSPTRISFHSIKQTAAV
Test: cAMP functional assay for human CRHR2 (LANCE Ultra cAMP, TR-FRET)
Format: cell-based
Conditions: CHO-K1 cells expressing human CRHR2-alpha, agonist human urocortin2 at EC80, cAMP; read-out: IC50 against CRHR2
How it was run: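 IC50 values derive from percent inhibition of EC80 agonist-stimulated cAMP in CHO-K1 transfectants, with 0.5 mM IBMX present; the CRHR2 line was stimulated by human urocortin2 and the CRHR1 line by CRF.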

Compound	IC50 [µM]
Cc1ncc(Cl)cc1C(=O)N[C@H]1CC[C@H](Cn2c(=O)n(-c3ccc(-c4ccn[nH]4)cc3)c3ccccc32)CC1 [Example 469, N-((1r,4r)-4-((3-(4-(1H-pyrazol-5-yl)phenyl)-2-oxo-2,3-dihydro-1H-benzo[d]imidazol-1-yl)methyl)cyclo-hexyl)-5-chloro-2-methylnicotinamide]	< 0.3
COc1ccc(-n2c(=O)n(C[C@H]3CC[C@H](NC(=O)c4c5ccccc5nn4C)CC3)c3ccccc32)cn1 [Example 220, N-((1r,4r)-4-((3-(6-methoxy-pyridin-3-yl)-2-oxo-2,3-dihydro-1H-benzo[d]imidazol-1-yl)methyl)cyclohexyl)-2-methyl-2H-indazole-3-carboxamide]	< 0.3
O=C(N[C@H]1CC[C@H](Cn2c(=O)n(-c3ccc4cncn4c3)c3ccccc32)CC1)c1cc(Cl)cnc1C(F)(F)F [Example 327, 5-chloro-N-((1r,4r)-4-((3-(imidazo[1,5-a]pyridin-6-yl)-2-oxo-2,3-dihydro-1H-benzo[d]imidazol-1-yl)methyl)cyclohexyl)-2-(trifluoromethyl)nicotinamide]	< 0.3
Cc1cc(-n2c(=O)n(C[C@H]3CC[C@H](NC(=O)c4cc(Cl)cnc4C(F)F)CC3)c3ccccc32)ccn1 [Example 377, 5-chloro-2-(difluoromethyl)-N-((1r,4r)-4-((3-(2-methyl-pyridin-4-yl)-2-oxo-2,3-dihydro-1H-benzo[d]imidazol-1-yl)methyl)cyclohexyl) nicotinamide]	< 0.3
Cc1ncc(Cl)cc1C(=O)N[C@H]1CC[C@H](Cn2c(=O)n(-c3ccc4ncnn4c3)c3ccccc32)CC1 [Example 278, N-((1r,4r)-4-((3-([1,2,4]triazolo [1,5-a]pyridin-6-yl)-2-oxo-2,3-dihydro-1H-benzo[d]imidazol-1-yl)methyl)cyclohexyl)-5-chloro-2-methylnicotinamide]	< 0.3
CNC(=O)c1ccc(-n2c(=O)n(C[C@H]3CC[C@H](NC(=O)c4cc(Cl)cnc4C4CC4)CC3)c3ccccc32)cn1 [Example 317, 5-(3-(((1r,4r)-4-(5-chloro-2-cyclopropylnicotinamido)cyclohexyl)methyl)-2-oxo-2,3-dihydro-1H-benzo[d]imidazol-1-yl)-N-methyl-picolinamide]	< 0.3
Cc1ncc(Cl)cc1C(=O)N[C@H]1CC[C@H](Cn2c(=O)n(-c3ccc(NC4COC4)nc3)c3ccccc32)CC1 [Example 147, 5-chloro-2-methyl-N-((1r,4r)-4-((3-(6-(oxetan-3-ylamino)pyridin-3-yl)-2-oxo-2,3-dihydro-1H-benzo[d]imidazol-1-yl)methyl)cyclo-hexyl)nicotinamide]	< 0.3
CNc1ccc(-n2c(=O)n(C[C@H]3CC[C@H](NC(=O)c4cc(Cl)cnc4C)CC3)c3cc(F)ccc32)cn1 [Example 624, 5-chloro-N-((1r,4r)-4-((6-fluoro-3-(6-(methylamino)pyridin-3-yl)-2-oxo-2,3-dihydro-1H-benzo[d]imidazol-1-yl)methyl)cyclohexyl)-2-methylnicotinamide]	< 0.3
O=C(N[C@H]1CC[C@H](Cn2c(=O)n(-c3ccc(NCC(F)(F)F)nc3)c3ccccc32)CC1)c1cc(Cl)cnc1C(F)F [Example 463, 5-chloro-2-(difluoromethyl)-N-((1r,4r)-4-((2-oxo-3-(6-((2,2,2-trifluoroethyl)amino)pyridin-3-yl)-2,3-dihydro-1H-benzo[d]imidazol-1-yl)methyl)cyclohexyl)nicotinamide]	< 0.3
Cc1ncc(Cl)cc1C(=O)N[C@H]1CC[C@H](Cn2c(=O)n(-c3cccc(-c4cncn4C)c3)c3ccccc32)CC1 [Example 517, 5-chloro-2-methyl-N-((1r,4r)-4-((3-(3-(1-methyl-1H-imidazol-5-yl)phenyl)-2-oxo-2,3-dihydro-1H-benzo[d]imidazol-1-yl)methyl)cyclohexyl)nicotinamide]	< 0.3
Cc1ncc(Cl)cc1C(=O)N[C@H]1CC[C@H](Cn2c(=O)n(-c3cccc(-n4ccnc4)c3)c3ccccc32)CC1 [Example 539, N-((1r,4r)-4-((3-(3-(1H-imidazol-1-yl)phenyl)-2-oxo-2,3-dihydro-1H-benzo[d]imidazol-1-yl)methyl)cyclohexyl)-5-chloro-2-methylnicotinamide]	< 0.3
Cc1c[nH]c2ncc(-n3c(=O)n(C[C@H]4CC[C@H](NC(=O)c5cc(Cl)cnc5C(F)F)CC4)c4cccnc43)cc12 [Example 474, 5-chloro-2-(difluoromethyl)-N-((1r,4r)-4-((3-(3-methyl-1H-pyrrolo[2,3-b]pyridin-5-yl)-2-oxo-2,3-dihydro-1H-imidazo[4,5-b]pyridin-1-yl)methyl)cyclohexyl)nicotinamide]	< 0.3

Further lines, results first:

IC50 [µM]	Compound
< 0.3	CNC(=O)c1noc2cc(-n3c(=O)n(C[C@H]4CC[C@H](NC(=O)c5cc(Cl)cnc5C)CC4)c4ccccc43)ccc12 [Example 244, 6-(3-(((1r,4r)-4-(5-chloro-2-methylnicotinamido)cyclohexyl)methyl)-2-oxo-2,3-dihydro-1H-benzo[d]imidazol-1-yl)-N-methylbenzo[d]isoxazole-3-carboxamide]
< 0.3	CNc1cc(C)c(-n2c(=O)n(C[C@H]3CC[C@H](NC(=O)c4cc(Cl)cnc4C(F)(F)F)CC3)c3ccccc32)cn1 [Example 545, 5-chloro-N-((1r,4r)-4-((3-(4-methyl-6-(methylamino)pyridin-3-yl)-2-oxo-2,3-dihydro-1H-benzo[d]imidazol-1-yl)methyl)cyclohexyl)-2-(trifluoromethyl)nicotinamide]
< 0.3	CNC(=O)c1ccc(-n2c(=O)n(C[C@H]3CC[C@H](NC(=O)c4cc(C(F)(F)F)ccc4Cl)CC3)c3ccccc32)cn1 [Example 490, 5-(3-(((1r,4r)-4-(2-chloro-5-(trifluoromethyl)benza-mido)cyclohexyl)methyl)-2-oxo-2,3-dihydro-1H-benzo[d]imidazol-1-yl)-N-methylpicolinamide]
< 0.3	Cc1ncc(Cl)cc1C(=O)N[C@H]1CC[C@H](Cn2c(=O)n(-c3ccc4c(c3)CCC4)c3ncccc32)CC1 [Example 189, 5-chloro-N-((1r,4r)-4-((3-(2,3-dihydro-1H-inden-5-yl)-2-oxo-2,3-dihydro-1H-imidazo[4,5-b]pyridin-1-yl)methyl)cyclohexyl)-2-methylnicotinamide]
< 0.3	CNC(=O)c1ccc(-n2c(=O)n(C[C@H]3CC[C@H](NC(=O)c4cc(Cl)ccc4OC(F)(F)F)CC3)c3ccccc32)cn1 [Example 531, 5-(3-(((1r,4r)-4-(5-chloro-2-(trifluoromethoxy)benzamido)cyclohexyl)methyl)-2-oxo-2,3-dihydro-1H-benzo[d]imidazol-1-yl)-N-methyl-picolinamide]
< 0.3	CNC(=O)c1ccc(-n2c(=O)n(C[C@H]3CC[C@H](NC(=O)c4cc(C)ccc4C(F)(F)F)CC3)c3ccccc32)cn1 [Example 492, N-methyl-5-(3-(((1r,4r)-4-(5-methyl-2-(trifluoro-methyl)benzamido)cyclo-hexyl)methyl)-2-oxo-2,3-dihydro-1H-benzo[d]imidazol-1-yl)picolinamide]
< 0.3	CCc1nc2ncc(-n3c(=O)n(C[C@H]4CC[C@H](NC(=O)c5cc(Cl)cnc5C)CC4)c4ccccc43)cc2o1 [Example 355, 5-chloro-N-((1r,4r)-4-((3-(2-ethyloxazolo[4,5-b]pyridin-6-yl)-2-oxo-2,3-dihydro-1H-benzo[d]imidazol-1-yl)methyl)cyclohexyl)-2-methylnicotinamide]
< 0.3	COC1CCN(c2ccc(-n3c(=O)n(C[C@H]4CC[C@H](NC(=O)c5cc(Cl)cnc5C)CC4)c4ccccc43)cn2)CC1 [Example 126, 5-chloro-N-((1r,4r)-4-((3-(6-(4-methoxypiperidin-1-yl)pyridin-3-yl)-2-oxo-2,3-di-hydro-1H-benzo[d]imidazol-1-yl)methyl)cyclohexyl)-2-methylnicotinamide]
< 0.3	CNC(=O)c1ccc(-n2c(=O)n(C[C@H]3CC[C@H](NC(=O)c4cc(Cl)cnc4C(F)F)CC3)c3cccc(F)c32)cn1 [Example 628, 5-(3-(((1 r,4r)-4-(5-chloro-2-(difluoromethyl)nicotinamido)cyclohexyl)methyl)-7-fluoro-2-oxo-2,3-dihydro-1H-benzo [d]imidazol-1-yl)-N-methylpicolinamide]
< 0.3	Cc1ncc(Cl)cc1C(=O)N[C@H]1CC[C@H](Cn2c(=O)n(-c3ccc(Br)cc3C#N)c3ccccc32)CC1 [Example 204, N-((1r,4r)-4-((3-(4-bromo-2-cyanophenyl)-2-oxo-2,3-dihydro-1H-benzo[d]imidazol-1-yl)methyl)cyclo-hexyl)-5-chloro-2-methylnicotinamide]
< 0.3	CNC(=O)c1ncc(-n2c(=O)n(C[C@H]3CC[C@H](NC(=O)c4cc(Cl)cnc4C(F)F)CC3)c3ccccc32)cc1Cl [Example 555, 3-chloro-5-(3-(((1r,4r)-4-(5-chloro-2-(difluoromethyl)nicotinamido)cyclohexyl)methyl)-2-oxo-2,3-dihydro-1H-benzo[d]imidazol-1-yl)-N-methylpicolinamide]
< 0.3	Cc1cc(C#N)c(-n2c(=O)n(C[C@H]3CC[C@H](NC(=O)c4cc(Cl)cnc4C)CC3)c3ccccc32)cn1 [Example 308, 5-chloro-N-((1r,4r)-4-((3-(4-cyano-6-methylpyridin-3-yl)-2-oxo-2,3-dihydro-1H-benzo[d]imidazol-1-yl)methyl)cyclohexyl)-2-methylnicotinamide]
